Experimental data published in patent US20240148821A1, “PHARMACEUTICAL USE OF CYCLIC PEPTIDE COMPOUND” (CHUGAI SEIYAKU KABUSHIKI KAISHA, priority 2021, published 2024).
Numbered stars: 1 amine (or outer) side, 2 acyl side, 3 side chain; on linkers, the order of the positions; unused ones are H or OH. Bridge positions count the residues as written; N and C are the ends. Square brackets hold non-standard residues; d marks the D form. Peptide text beside a SMILES is read from it. * marks the point of attachment. hPhe(3-Cl-4-CF3) = N[C@@H](CCc1ccc(C(F)(F)F)c(Cl)c1)C(=O)O; hPhe(3-F,4-CF3) = N[C@@H](CCc1ccc(C(F)(F)F)c(F)c1)C(=O)O; NMePhe(4-CF3) = CN[C@@H](Cc1ccc(C(F)(F)F)cc1)C(=O)O; NMeAla(4-thiazolyl) = CN[C@@H](Cc1cscn1)C(=O)O; NMePhe(3-CN) = CN[C@@H](Cc1cccc(C#N)c1)C(=O)O; NMeAbu(4,4,4-F3) = CN[C@@H](CC(F)(F)F)C(=O)O; NMePhe(4-Cl) = CN[C@@H](Cc1ccc(Cl)cc1)C(=O)O; NMePhe(4-Me) = CN[C@@H](Cc1ccc(C)cc1)C(=O)O; NMedβ3hAla = C[C@H](CC(=O)[*:2])N(C)[*:1]; NMeAla(cPent) = CN[C@@H](CC1CCCC1)C(=O)O; NMeGly(cPent) = CN[C@H](C(=O)O)C1CCCC1; NMeCha = CN[C@@H](CC1CCCCC1)C(=O)O; NMeChg = CN[C@H](C(=O)O)C1CCCCC1; NMeF = CN[C@@H](Cc1ccccc1)C(=O)O; NMeI = CC[C@H](C)[C@H](NC)C(=O)O; Cha = N[C@@H](CC1CCCCC1)C(=O)O; NMeD = CN[C@@H](CC(=O)O)C(=O)O; CH2CONHtBu = CC(C)(C)NC(=O)C*; NMeL = CN[C@@H](CC(C)C)C(=O)O; NMeV = CN[C@H](C(=O)O)C(C)C; d(β3hA) = C[C@@H](N)CC(=O)O; NMeS = CN[C@@H](CO)C(=O)O; Morpholide = C1CN(*)CCO1; NMeA = CN[C@@H](C)C(=O)O; Piperidide = C1CCN(*)CC1; Pyrrolidide = C1CCN(*)C1; Ac5c = NC1(C(=O)O)CCCC1; Aze = O=C(O)[C@@H]1CCN1; βAla = NCCC(=O)O; Sar = CNCC(=O)O; Propyl = CCC*

These compounds were tested on Human pancreatic cancer cell line AsPC-1 (G12D mutation Kras) (assay: AsPC-1 cell growth inhibition (AsPC-1 CGI)). Settings: read-out: AsPC-1 cell growth inhibition, 50% growth inhibitory concentration (IC50 value); 96 hours, CellTiter-Glo, values classified in ranges.
Type: cell-based
Procedure: Test compounds were serially dilated with dimethyl sulfoxide, and 200 nL was then dispensed to a U-bottom 96-well plate using Labcyte Echo. […] The cell suspension was dispensed to a. plate containing a test compound at 100 μL per well and incubated at 37° C. in a 5% carbon dioxide gas incubator. 96 hours later, 80 μL of CellTiter-Glo (Promega) was added to each well and fluorescence was measured.

Structure (SMILES)	IC50 [nM]
CC[C@H](C)[C@@H]1NC(=O)[C@H](CC(C)C)N(C)C(=O)C[C@@H](C)NC(=O)[C@H](C(C)C)N(C)C(=O)C2(CCCC2)NC(=O)[C@@H]2CCCN2C(=O)[C@H](CCc2ccc(C(F)(F)F)c(Cl)c2)NC(=O)CN(C)C(=O)[C@H](Cc2cccc(C#N)c2)N(C)C(=O)CN(C)C(=O)CN(C)C1=O [Compound 975] (cyclo([Ac5c][NMeV][d(β3hA)][NMeL]I[Sar][Sar][NMePhe(3-CN)][Sar][hPhe(3-Cl-4-CF3)]P))	> 500
CC[C@H](C)[C@@H]1NC(=O)[C@H](CC(C)C)N(C)C(=O)CCNC(=O)[C@H](C(C)C)N(C)C(=O)C2(CCCC2)NC(=O)[C@@H]2CCCN2C(=O)[C@H](CCc2ccc(C(F)(F)F)c(Cl)c2)NC(=O)CN(C)C(=O)[C@H](CC2CCCCC2)N(C)C(=O)CN(C)C(=O)CN(C)C1=O [Compound 979] (cyclo([Ac5c][NMeV][βAla][NMeL]I[Sar][Sar][NMeCha][Sar][hPhe(3-Cl-4-CF3)]P))	> 500
CC[C@H](C)[C@@H]1NC(=O)[C@H](CC(F)(F)F)N(C)C(=O)C[C@@H](C(=O)N2CCOCC2)N(C)C(=O)[C@H](C2CCCCC2)N(C)C(=O)C2(CCCC2)NC(=O)[C@@H]2CCCN2C(=O)[C@H](CCc2ccc(C(F)(F)F)c(Cl)c2)NC(=O)CN(C)C(=O)[C@H](Cc2ccc(C(F)(F)F)cc2)N(C)C(=O)CN(C)C(=O)CN(C)C1=O [Compound 981] ([NMeAbu(4,4,4-F3)]I[Sar][Sar][NMePhe(4-CF3)][Sar][hPhe(3-Cl-4-CF3)]P[Ac5c][NMeChg][NMeD]-Morpholide; lactam N-11)	≤ 20
CC[C@H](C)[C@@H]1NC(=O)[C@H](CC(C)C)N(C)C(=O)C[C@@H](C(=O)N(C)C)N(C)C(=O)[C@H]([C@@H](C)CC)N(C)C(=O)[C@H](C(C)C)NC(=O)[C@H](Cc2cscn2)N(C)C(=O)[C@H](CCc2ccc(C(F)(F)F)c(Cl)c2)NC(=O)CN(C)C(=O)[C@H](Cc2ccc(C)cc2)N(C)C(=O)[C@@H]2CCN2C(=O)[C@H](C)N(C)C1=O [Compound 982] ([NMeL]I[NMeA][Aze][NMePhe(4-Me)][Sar][hPhe(3-Cl-4-CF3)][NMeAla(4-thiazolyl)]V[NMeI][NMeD]-NMe2; lactam N-11)	> 500
CC(C)C[C@H]1C(=O)N[C@@H](CC2CCCCC2)C(=O)N(C)CC(=O)N(C)CC(=O)N(C)[C@@H](CC2CCCCC2)C(=O)N(C)CC(=O)N[C@@H](CCc2ccc(C(F)(F)F)c(Cl)c2)C(=O)N2CCC[C@H]2C(=O)NC2(CCCC2)C(=O)N(C)[C@@H](C(C)C)C(=O)N(C)[C@H](C(=O)N2CCCCC2)CC(=O)N1C [Compound 986] ([NMeL][Cha][Sar][Sar][NMeCha][Sar][hPhe(3-Cl-4-CF3)]P[Ac5c][NMeV][NMeD]-Piperidide; lactam N-11)	> 500
CCCOC[C@H]1C(=O)N(C)CC(=O)N[C@@H](CCc2ccc(C(F)(F)F)c(F)c2)C(=O)N2CCC[C@H]2C(=O)NC2(CCCC2)C(=O)N(C)[C@@H](C2CCCC2)C(=O)N(C)[C@H](C(=O)N2CCCC2)CC(=O)N(C)[C@@H](CC(C)C)C(=O)N[C@@H]([C@@H](C)CC)C(=O)N(C)[C@@H](C)C(=O)N2CC[C@H]2C(=O)N1C [Compound 987] ([NMeL]I[NMeA][Aze][NMeS](Propyl)[Sar][hPhe(3-F,4-CF3)]P[Ac5c][NMeGly(cPent)][NMeD]-Pyrrolidide; lactam N-11)	≤ 20
CC[C@H](C)[C@@H]1NC(=O)[C@H](CC(C)C)N(C)C(=O)C[C@@H](C)N(C)C(=O)[C@H](CC2CCCC2)N(C)C(=O)C2(CCCC2)NC(=O)[C@@H]2CCCN2C(=O)[C@H](CCc2ccc(C(F)(F)F)c(Cl)c2)NC(=O)CN(C)C(=O)[C@H](CC2CCCCC2)N(C)C(=O)CN(C)C(=O)CN(C)C1=O [Compound 991] (cyclo([Ac5c][NMeAla(cPent)][NMedβ3hAla][NMeL]I[Sar][Sar][NMeCha][Sar][hPhe(3-Cl-4-CF3)]P))	> 500
CC[C@H](C)[C@@H]1NC(=O)[C@H](CC(C)C)N(C)C(=O)C[C@@H](C(=O)N(C)C)N(C)C(=O)[C@H](C2CCCC2)N(C)C(=O)[C@H](C)NC(=O)[C@H](C)N(C)C(=O)[C@H](CCc2ccc(C(F)(F)F)c(Cl)c2)NC(=O)CN(C)C(=O)[C@H](CC2CCCCC2)N(C)C(=O)[C@@H]2CCN2C(=O)[C@H](C)N(C)C1=O [Compound 993] ([NMeL]I[NMeA][Aze][NMeCha][Sar][hPhe(3-Cl-4-CF3)][NMeA]A[NMeGly(cPent)][NMeD]-NMe2; lactam N-11)	> 500
CC[C@H](C)[C@@H]1NC(=O)[C@H](C)N(C)C(=O)C[C@@H](C)NC(=O)[C@H](C(C)C)N(C)C(=O)[C@H](Cc2ccccc2)N(C)C(=O)[C@H](CC(C)C)N(C)C(=O)[C@H](CCc2ccc(C(F)(F)F)c(Cl)c2)NC(=O)CN(C)C(=O)[C@H](Cc2ccc(Cl)cc2)N(C)C(=O)[C@@H]2CCN2C(=O)CN(C)C1=O [Compound 994] (cyclo([Aze][NMePhe(4-Cl)][Sar][hPhe(3-Cl-4-CF3)][NMeL][NMeF][NMeV][d(β3hA)][NMeA]I[Sar]))	> 500
CC[C@H](C)[C@@H]1NC(=O)[C@H](CC(C)C)N(C)C(=O)C[C@@H](C(=O)N2CCCCC2)N(C)C(=O)[C@H](C(C)C)N(C)C(=O)C2(CCCC2)NC(=O)[C@@H]2CCCN2C(=O)[C@H](CCc2ccc(C(F)(F)F)c(Cl)c2)NC(=O)CN(C)C(=O)[C@H](CC2CCCCC2)N(C)C(=O)[C@@H]2CCN2C(=O)[C@H](COCC(=O)NC(C)(C)C)N(C)C1=O [Compound 998] ([NMeL]I[NMeS](CH2CONHtBu)[Aze][NMeCha][Sar][hPhe(3-Cl-4-CF3)]P[Ac5c][NMeV][NMeD]-Piperidide; lactam N-11)	> 500
